In patent US20160168616A1, “PRODUCTION OF NONTOXIC RAW MATERIALS AND FINISHED PRODUCTS TESTED BY MEANS OF AN INNOVATIVE PROBIOTIC BACTERIA BASED METHOD FOR DETERMINING TOXICITY TOWARDS PROBIOTIC BACTERIA” (PROBIOTICAL S.P.A., priority 2013, published 2016):

System: probiotic bacterial strains indicated in Table 1 with the numbers 17, 22, 41, 60, 74, 98, 121, 145, 174 and 182
Assay: toxicity test of raw materials with the method of the invention (plate count, % mortality)
Format: cell-based
Details: raw material test; strains 17, 22, 41, 60, 74, 98, 121, 145, 174 and 182 of Table 1 as toxicity markers
Method: The method comprises a step in which the probiotic bacterial strain (toxicity marker) is placed in contact with a raw material to be tested using a quantity of raw material equal to that normally used in the formulation.
In practical terms, a first sample is prepared which comprises the probiotic bacterial strain (toxicity marker), the optimal culture substrate for said probiotic bacterial strain and the raw material to be tested.
Then a second sample (internal reference) is prepared which comprises the same probiotic bacterial strain used in said first sample (toxicity marker) and only the optimal culture substrate (without the raw material to be tested). […]
The ratio between the bacterial count (number of cells counted on the plate) of said first sample and the bacterial count (number of cells on the plate) of said second sample provides a number less than 1, which, if expressed as a percentage, provides a count of the bacteria which survived in contact with the raw material and, therefore, also expresses the % mortality induced by said raw material in the probiotic bacterial strains used as a marker. […]
8.11 incubate the plates upside down at 37±1° C. for 72 h under anaerobic conditions (Gas-Pak+anaerobic kit). […] The result will be expressed as CFU, i.e. Colony Forming Units. […]

Question: Which mortality found does the source give for O=C(O)CC(O)(CC(=O)O)C(=O)O [Citric Acid] here?
Answer: 2%
